Test results as given in paper PMC3113527 (Journal of agricultural and food chemistry, 2011).

Columns and labels:
[1] = biological target: T1, Lipase from porcine pancreas (PL) (Sus scrofa, UniProt P00591); assay: Pancreatic lipase inhibition assay in vitro; assay type: biochemical; conditions: read-out: Inhibition of PL
T1 sequence (P00591 1-450): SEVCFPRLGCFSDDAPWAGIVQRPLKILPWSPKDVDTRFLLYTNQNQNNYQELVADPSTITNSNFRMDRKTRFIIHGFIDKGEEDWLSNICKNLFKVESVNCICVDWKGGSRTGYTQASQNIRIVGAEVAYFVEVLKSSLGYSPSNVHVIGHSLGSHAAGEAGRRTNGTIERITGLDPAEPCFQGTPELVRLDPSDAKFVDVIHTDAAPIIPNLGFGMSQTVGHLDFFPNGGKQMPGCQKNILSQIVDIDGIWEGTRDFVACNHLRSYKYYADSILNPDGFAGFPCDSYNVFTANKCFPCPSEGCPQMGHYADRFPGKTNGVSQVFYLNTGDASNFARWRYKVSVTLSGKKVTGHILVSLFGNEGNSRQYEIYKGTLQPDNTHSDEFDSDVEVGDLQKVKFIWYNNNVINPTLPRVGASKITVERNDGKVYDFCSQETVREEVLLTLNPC

[2] = biological target: secreted phospholipase A2 (PLA2) (Apis mellifera, UniProt P00630); assay: biochemical; conditions: read-out: Inhibition of PLA2
secreted phospholipase A2 (PLA2), sequence (P00630 34-167 limits assumed): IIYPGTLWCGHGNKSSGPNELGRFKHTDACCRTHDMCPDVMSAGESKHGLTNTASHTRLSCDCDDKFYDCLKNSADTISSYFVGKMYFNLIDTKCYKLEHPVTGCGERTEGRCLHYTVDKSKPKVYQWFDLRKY

PLA2 = conditions: at 2 mM; cited from earlier work

Structure (SMILES): Oc1cc(O)c2c(c1)O[C@H](c1ccc(O)c(O)c1)[C@H](O)C2 [EC, (−)-epicatechin]
- inhibition at 20 µM [1]: 15%
- inhibition at 100 µM [2]: 4.5%

Structure (SMILES): O=C(O[C@@H]1Cc2c(O)cc(O)cc2O[C@@H]1c1cc(O)c(O)c(O)c1)c1cc(O)c(O)c(O)c1 [EGCG]
- Inhibition of PLA2 in vitro (PLA2): 64.9%

Structure (SMILES): CCCCCCCCCCC[C@@H](C[C@@H]1OC(=O)[C@H]1CCCCCC)OC(=O)[C@H](CC(C)C)NC=O [Orlistat]
- inhibition at 10 µM [1]: 72%
